Tested on: GL261 murine glioma cells
Assay: Microglia stimulated glioma invasion, Matrigel-coated invasion chamber coculture assay
Format: cell-based
Conditions: 250 nM CCR1 antagonist, 48 hours, GL261 cocultured with microglia, vs DMSO; FIG. 1
Experimental: Microglial stimulation of glioma invasion. CCR1 antagonists were screened using the glioblastoma cells and microglia invasion assay described below.
GL261 murine glioma cells expressing the fluorescent protein m-Cherry and microglial (MG) cells stained with cell tracker green (CMFDA; Invitrogen) were cocultured on Matrigel-coated invasion chambers (Becton, Dickinson and Company). Cells were plated at a density per invasion chamber of 100,000 labeled GL261 cells with an additional 150,000 unlabelled GL261 cells or with 50,000 unlabelled GL261 and 50,000 MG cells in M-SFM with 0.3% BSA. Invasion chambers were incubated for 48 hours in the presence of DMSO, or 250 nM of the CCR1 antagonist, after which they were fixed in 3.7% paraformaldehyde in PBS. Imaging of the cells on the bottom of the filter was performed using an AMG EVOS epifluorescent microscope. The extent of invasion was quantified by counting the number of glioblastoma cells (green) that were on the underside of the filter in at least seven 10× fields. The final number of invasive cells in the control was multiplied by 0.75 to normalize.

Cc1nnc([C@H]2CCCN2C(=O)Nc2ccc(C(F)(F)F)cc2)n1Cc1ccc(Cl)cc1 [Compound #1]
reduction in the number of invasive glioma cells: greater than 50%
